Patent US9085576B2 (AMGEN INC., priority 2013, dated 2015)
pIC50: −log10 of the molar value. One block for each compound: values may come before it.

Tests used:
[1] = target: Beta Secretase enzyme (BACE) (Homo sapiens (Human), UniProt P56817); assay: In vitro enzymatic BACE FRET assay; assay type: biochemical; details: read-out: BACE1 Enzyme assay IC50
Cathepsin D (Cat D) = Cathepsin D (Cat D) (Homo sapiens (Human), UniProt P07339); assay: In vitro enzymatic Cathepsin D (Cat D) FRET assay; assay type: biochemical; details: read-out: CatD IC50
Cathepsin D (Cat D), sequence (P07339 65-412, species assumed): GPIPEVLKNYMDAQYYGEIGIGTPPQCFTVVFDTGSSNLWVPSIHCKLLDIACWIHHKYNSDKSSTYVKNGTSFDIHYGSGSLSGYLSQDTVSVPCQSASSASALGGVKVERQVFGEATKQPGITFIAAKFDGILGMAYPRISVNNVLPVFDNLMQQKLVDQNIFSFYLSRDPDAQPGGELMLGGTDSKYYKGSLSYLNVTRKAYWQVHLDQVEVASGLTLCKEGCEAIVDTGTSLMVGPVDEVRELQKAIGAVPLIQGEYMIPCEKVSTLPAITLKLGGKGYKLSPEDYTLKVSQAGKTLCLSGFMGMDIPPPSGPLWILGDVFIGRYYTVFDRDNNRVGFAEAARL

Beta Secretase enzyme (BACE), sequence (P56817 46-501): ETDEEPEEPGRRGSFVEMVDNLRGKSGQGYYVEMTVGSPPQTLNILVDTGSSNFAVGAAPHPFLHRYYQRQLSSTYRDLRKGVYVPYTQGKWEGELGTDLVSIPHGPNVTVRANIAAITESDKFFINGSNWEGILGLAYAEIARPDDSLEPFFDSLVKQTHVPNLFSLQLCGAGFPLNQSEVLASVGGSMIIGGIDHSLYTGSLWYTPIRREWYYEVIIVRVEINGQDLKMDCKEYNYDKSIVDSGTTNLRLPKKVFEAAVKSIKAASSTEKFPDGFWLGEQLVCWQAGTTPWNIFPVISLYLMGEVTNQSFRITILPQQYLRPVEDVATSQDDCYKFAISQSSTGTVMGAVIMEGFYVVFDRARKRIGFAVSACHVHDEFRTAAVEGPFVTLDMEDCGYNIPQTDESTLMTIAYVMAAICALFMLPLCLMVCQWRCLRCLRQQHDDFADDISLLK

Compound: NC1=N[C@@](c2cc(N[C@H]3CCCc4cc(Br)cnc43)ccc2F)(C(F)F)[C@H]2C[C@H]2O1 (mixture of isomers) [Example 382, (1R,5S,6R)-5-(5-(((R)-3-bromo-5,6,7,8-tetrahydroquinolin-8-yl)amino)-2-fluorophenyl)-5-(difluoromethyl)-2-oxa-4-azabicyclo[4.1.0]hept-3-en-3-amine and (1R,5S,6R)-5-(5-(((S)-3-bromo-5,6,7,8-tetrahydroquinolin-8-yl)amino)-2-fluorophenyl)-5-(difluoromethyl)-2-oxa-4-azabicyclo[4.1.0]hept-3-en-3-amine]
pIC50 [1]: 5.51
pIC50 (Cathepsin D (Cat D)): 3.58

Compound: NC1=N[C@@](c2cc(N[C@@H]3CCc4cc(Br)ccc43)ccc2F)(C(F)F)[C@H]2C[C@H]2O1.NC1=N[C@@](c2cc(N[C@H]3CCc4cc(Br)ccc43)ccc2F)(C(F)F)[C@H]2C[C@H]2O1 (mixture of isomers) [Example 384, (1R,5S,6R)-5-(5-(((R)-5-bromo-2,3-dihydro-1H-inden-1-yl)amino)-2-fluorophenyl)-5-(difluoromethyl)-2-oxa-4-azabicyclo[4.1.0]hept-3-en-3-amine and (1R,5S,6R)-5-(5-(((S)-5-bromo-2,3-dihydro-1H-inden-1-yl)amino)-2-fluorophenyl)-5-(difluoromethyl)-2-oxa-4-azabicyclo[4.1.0]hept-3-en-3-amine]
pIC50 [1]: 6.50
pIC50 (Cathepsin D (Cat D)): 4.08

Compound: NC1=N[C@@](c2cc(N[C@H](c3ccc(Cl)cn3)C(F)(F)F)ccc2F)(C(F)F)[C@H]2C[C@H]2O1 (mixture of isomers) [Example 422, (1R,5S,6R)-5-(5-(((R)-1-(5-chloropyridin-2-yl)-2,2,2-trifluoroethyl)amino)-2-fluorophenyl)-5-(difluoromethyl)-2-oxa-4-azabicyclo[4.1.0]hept-3-en-3-amine and (1R,5S,6R)-5-(5-(((S)-1-(5-chloropyridin-2-yl)-2,2,2-trifluoroethyl)amino-2-fluorophenyl)-5-(difluoromethyl)-2-oxa-4-azabicyclo[4.1.0]hept-3-en-3-amine]
pIC50 [1]: 5.28
pIC50 (Cathepsin D (Cat D)): 4.17

Compound: Cc1cc(C#N)cnc1C(=O)Nc1cc(F)c(Cl)c([C@]2(CF)N=C(N)O[C@H]3C[C@H]32)c1 (racemic) [Example 137, N-(3-((1R/S,5S/R,6R/S)-3-amino-5-(fluoromethyl)-2-oxa-4-azabicyclo[4.1.0]hept-3-en-5-yl)-4-chloro-5-fluorophenyl)-5-cyano-3-methylpicolinamide]
pIC50 [1]: 7.35
pIC50 (Cathepsin D (Cat D)): 3.27

Compound: NC1=N[C@](CF)(c2cccc(NC(=O)c3ccc(Cl)cn3)c2)[C@H]2C[C@H]2O1 (racemic) [Example 423, N-(3-(((1R,S),(5S,R),(6R,S))-3-amino-5-(fluoromethyl)-2-oxa-4-azabicyclo[4.1.0]hept-3-en-5-yl)phenyl)-5-chloropicolinamide]
pIC50 [1]: 6.40
pIC50 (Cathepsin D (Cat D)): 3.23

Compound: NC1=N[C@@](c2cc(N[C@@H]3CCc4cc(Br)cnc43)ccc2F)(C(F)F)[C@H]2C[C@H]2O1 (single isomer, unassigned) [Example 380, (1R,5S,6R)-5-(5-(((R)-3-bromo-6,7-dihydro-5H-cyclopenta[b]pyridin-7-yl)amino)-2-fluorophenyl)-5-(difluoromethyl)-2-oxa-4-azabicyclo[4.1.0]hept-3-en-3-amine or (1R,5S,6R)-5-(5-(((S)-3-bromo-6,7-dihydro-5H-cyclopenta[b]pyridin-7-yl)amino)-2-fluorophenyl)-5-(difluoromethyl)-2-oxa-4-azabicyclo[4.1.0]hept-3-en-3-amine]
pIC50 [1]: 6.84
pIC50 (Cathepsin D (Cat D)): 3.47

Compound: NC1=N[C@@](c2cc(N[C@H]3CCc4cc(Br)cnc43)ccc2F)(C(F)F)[C@H]2C[C@H]2O1 (single isomer, unassigned) [Example 381, (1R,5S,6R)-5-(5-(((S)-3-bromo-6,7-dihydro-5H-cyclopenta[b]pyridin-7-yl)amino)-2-fluorophenyl)-5-(difluoromethyl)-2-oxa-4-azabicyclo[4.1.0]hept-3-en-3-amine or (1R,5S,6R)-5-(5-(((R)-3-bromo-6,7-dihydro-5H-cyclopenta[b]pyridin-7-yl)amino)-2-fluorophenyl)-5-(difluoromethyl)-2-oxa-4-azabicyclo[4.1.0]hept-3-en-3-amine]
pIC50 [1]: 5.46
pIC50 (Cathepsin D (Cat D)): 4.08

Compound: Cc1cc(C#N)cnc1C(=O)Nc1cc(F)c(Cl)c([C@]2(CF)N=C(N)O[C@H]3C[C@H]32)c1 [Example 139, N-(3-((1 S,5R,6S)-3-amino-5-(fluoromethyl)-2-oxa-4-azabicyclo[4.1.0]hept-3-en-5-yl)-4-chloro-5-fluorophenyl)-5-cyano-3-methylpicolinamide]
pIC50 [1]: 4.85
pIC50 (Cathepsin D (Cat D)): 3.19

Compound: NC1=N[C@@](c2cc(NC3(c4ccc(Cl)cn4)COC3)ccc2F)(C(F)F)[C@H]2C[C@H]2O1 [Example 332, (1R,5S,6R)-5-(5-((3-(5-chloropyridin-2-yl)oxetan-3-yl)amino)-2-fluorophenyl)-5-(difluoromethyl)-2-oxa-4-azabicyclo[4.1.0]hept-3-en-3-amine]
pIC50 (Cathepsin D (Cat D)): 3.79

Compound: N=C1N[C@](CF)(c2cc(-c3cncc(F)c3)c(CO)cc2F)[C@H]2CC2O1 (stereo partly drawn) [Example 433, (5-fluoro-4-([(1R,S),(5S,R),(6R,S)]-5-(fluoromethyl)-3-imino-2-oxa-4-azabicyclo[4.1.0]heptan-5-yl)-2-(5-fluoropyridin-3-yl)phenyl)methanol]
pIC50 [1]: 4.64

Compound: COC(=O)c1ccc(C(=O)Nc2cc(F)c(F)c([C@]3(C(F)F)N=C(N)O[C@H]4C[C@H]43)c2)nc1 [Example 436, methyl 6-((3-((1S,5R,6S)-3-amino-5-(difluoromethyl)-2-oxa-4-azabicyclo[4.1.0]hept-3-en-5-yl)-4,5-difluorophenyl)carbamoyl)nicotinate]
pIC50 (Cathepsin D (Cat D)): 3.46

Compound: (R)-4-((3-((1R,5S,6R)-3-amino-5-(difluoromethyl)-2-oxa-4-azabicyclo[4.1.0]hept-3-en-5-yl)-4-fluorophenyl)amino)chroman-7-carbonitrile and (S)-4-((3-((1R,5S,6R)-3-amino-5-(difluoromethyl)-2-oxa-4-azabicyclo[4.1.0]hept-3-en-5-yl)-4-fluorophenyl)amino)chroman-7-carbonitrile [Example 383]
pIC50 [1]: 6.01

More lines, now with the values ahead:

pIC50 [1]: 8.41
pIC50 (Cathepsin D (Cat D)): 3.24
Compound: CC#CCOc1cnc(C(=O)Nc2ccc(Cl)c([C@]3(C(F)F)N=C(N)O[C@H]4C[C@H]43)c2)cn1 (racemic) [Example 210, N-(3-([1(R,S),5(S,R),6(R,S)]-3-amino-5-(difluoromethyl)-2-oxa-4-azabicyclo[4.1.0]hept-3-en-5-yl)-4-chlorophenyl)-5-(but-2-yn-1-yloxy)pyrazine-2-carboxamide]

pIC50 [1]: 8.20
pIC50 (Cathepsin D (Cat D)): 4.18
Compound: C#CCOc1cnc(C(=O)Nc2ccc(Cl)c([C@]3(C(F)F)N=C(N)O[C@H]4C[C@H]43)c2)cn1 (racemic) [Example 219, N-(3-((1(S,R),5(R,S),6(S,R))-3-amino-5-(difluoromethyl)-2-oxa-4-azabicyclo[4.1.0]hept-3-en-5-yl)-4-chlorophenyl)-5-(prop-2-yn-1-yloxy)pyrazine-2-carboxamide]

pIC50 [1]: 7.73
pIC50 (Cathepsin D (Cat D)): 3.16
Compound: NC1=N[C@](c2cc(NC(=O)c3nn(C(F)F)cc3Cl)ccc2Cl)(C(F)F)[C@@H]2C[C@@H]2O1 (racemic) [Example 220, N-(3-((1(R,S),5(S,R),6(R,S))-3-amino-5-(difluoromethyl)-2-oxa-4-azabicyclo[4.1.0]hept-3-en-5-yl)-4-chlorophenyl)-4-chloro-1-(difluoromethyl)-1H-pyrazole-3-carboxamide]

pIC50 [1]: 5.19
pIC50 (Cathepsin D (Cat D)): 3.00
Compound: C#CCOc1cnc(C(=O)Nc2cc(F)c(F)c([C@@]3(C(F)F)N=C(N)O[C@@H]4C[C@@H]43)c2)cn1 [Example 111, N-(3-((1R,5S,6R)-3-amino-5-(difluoromethyl)-2-oxa-4-azabicyclo[4.1.0]hept-3-en-5-yl)-4,5-difluorophenyl)-5-(prop-2-yn-1-yloxy)pyrazine-2-carboxamide]

pIC50 [1]: 8.68
pIC50 (Cathepsin D (Cat D)): 4.37
Compound: C#CCOc1cnc(C(=O)Nc2cc(F)c(F)c([C@@]3(C(F)F)N=C(N)O[C@@H]4C[C@@H]43)c2)cn1 [Example 115, N-(3-((1R,5S,6R)-3-amino-5-(difluoromethyl)-2-oxa-4-azabicyclo[4.1.0]hept-3-en-5-yl)-4,5-difluorophenyl)-5-(prop-2-yn-1-yloxy)pyrazine-2-carboxamide]

pIC50 [1]: 6.08
pIC50 (Cathepsin D (Cat D)): 3.30
Compound: CC#CCOc1cnc(C(=O)Nc2ccc(Cl)c([C@]3(C(F)F)N=C(N)O[C@H]4C[C@H]43)c2)cn1 [Example 216, N-(3-((1S,5R,6S)-3-amino-5-(difluoromethyl)-2-oxa-4-azabicyclo[4.1.0]hept-3-en-5-yl)-4-chlorophenyl)-5-(but-2-yn-1-yloxy)pyrazine-2-carboxamide]

pIC50 (Cathepsin D (Cat D)): 3.15
Compound: Cc1ccc(NC(=O)c2ccc(C#N)cn2)cc1[C@@]1(C(F)F)N=C(N)O[C@@H]2C[C@@H]21 [Example 269, N-(3-((1R,5S,6R)-3-amino-5-(difluoromethyl)-2-oxa-4-azabicyclo[4.1.0]hept-3-en-5-yl)-4-methylphenyl)-5-cyanopicolinamide]

pIC50 (Cathepsin D (Cat D)): < 3.40
Compound: Cc1cc(NC(=O)c2ncc(C#N)cn2)cc([C@@]2(C(F)F)N=C(N)O[C@@H]3C[C@@H]32)c1F [Example 298, N-(3-((1R,5S,6R)-3-amino-5-(difluoromethyl)-2-oxa-4-azabicyclo[4.1.0]hept-3-en-5-yl)-4-fluoro-5-methylphenyl)-5-cyanopyrimidine-2-carboxamide]

pIC50 (Cathepsin D (Cat D)): 3.33
Compound: C#Cc1ccc(C(=O)Nc2ccc(F)c([C@@]3(C(F)F)N=C(N)O[C@@H]4C[C@@H]43)c2)nc1 [Example 313, N-(3-((1R,5S,6R)-3-amino-5-(difluoromethyl)-2-oxa-4-azabicyclo[4.1.0]hept-3-en-5-yl)-4-fluorophenyl)-5-ethynylpicolinamide]

pIC50 (Cathepsin D (Cat D)): < 3.40
Compound: NC1=N[C@@](c2cc(Nc3ncc(F)c4cc(Cl)cnc34)ccc2F)(C(F)F)[C@H]2C[C@H]2O1 [Example 361, (1R,5S,6R)-5-(5-((3-chloro-5-fluoro-1,7-naphthyridin-8-yl)amino)-2-fluorophenyl)-5-(difluoromethyl)-2-oxa-4-azabicyclo[4.1.0]hept-3-en-3-amine]
